What was measured:
[1] = tested on: Mouse ES cells; assay: Mitotic arrest of mouse ES cells; assay type: cell-based; conditions: nocodazole 400 nM, about 12 hours
Protocol: FIG. 9: Induction of mitotic spindle matrix assembly by RanGTP and AurA-beads in mouse ES cells. Mouse ES cells were arrested in mitosis using nocodazole. 70-90% mitotic arrest can be achieved after about 12 hours of nocodazole (400 nM) treatment. The ES cells were washed in PBS and the cell pellet was snap frozen in liquid nitrogen. To make the cell lysate, an energy mix, which contains 0.5 mg/ml delta 90 cyclin B, 10 mM ATP, 100 mM creatine phosphate, 0.5 mg/ml creatine kinase, that equals to 5% of the volume of the ES cell pellet was used to resuspend the ES cell pellet. A ˜2-second sonication was used to disrupt the cell followed by centrifugation to make clarified and concentrated ES cell lysates. RanGTP and AurA-beads were added to the lysate to induce the assembly of mitotic spindle matrix. Shown are matrices that were double labeled with tubulin and lamin B, Sox2, or nanog. AurA-beads (2.8 μm) embedded in the matrices serve as reference for the scale.

[2] = tested on: LB3-matrix; assay: LB3-matrix assembly in egg extracts (AurA-beads plus RanGTP or sperm chromatin); assay type: biochemical, Xenopus
Protocol: Two methods were used to assay for LB3-matrix assembled in egg extracts. In the first method, spindle assembly was induced with either sperm or AurA-beads plus RanGTP. After incubation, 10 μl of egg extract was diluted into 1 ml XB buffer containing nocodazole (10 μM final concentration) and incubated at room temperature for 10 to 15 minutes to depolymerize MTs. In the second method, egg extracts were incubated with either sperm or AurA-beads plus RanGTP in the presence of 10 μM nocodazole at room temperature for the same time as for spindle assembly reactions. After incubated the egg extracts were diluted into 1 ml BRB80 buffer containing 30% glycerol. LB3-matrix assembled in both methods was spun onto coverslips through 3 ml BRB80 buffer containing 40% glycerol in the same manner as MT spin-down. The LB3-matrix were fixed with methanol (−20° C.) and stained with either polyclonal or monoclonal antibodies to LB3.
To detect the membrane in the lamin B matrix, spindles and LB3-matrices were assembled and spun onto coverslips as described above. The coverslips were incubated in BRB80 containing 20% sucrose and 1 μM Vybrant CM-Dil (Molecular Probes, V22888) for 5 minutes at room temperature and then washed briefly in BRB80 containing 20% sucrose. […]

[3] = tested on: mitotic spindle; assay: Spindle assembly in Xenopus egg extract; assay type: biochemical; conditions: sperm or RanGTP plus AurA-beads; LB3T, LB3T-nls 10 μM; ΔNLB3, wild-type LB3 2 μM
Protocol: CSF-arrested Xenopus egg extracts, Xenopus sperm, and AurA-beads were prepared as described. […] Spindle assembly reactions were incubated at room temperature for 60 to 90 minutes with sperm or for 10 to 30 minutes with AurA-beads and RanGTP. To immunodeplete LB3, monoclonal antibody or polyclonal antibody to LB3 was coupled to protein A magnetic or agarose beads. IgG from non-immunized rabbits (Jackson Laboratory) was used for mock-depletion. To inhibit LB3 assembly with dominant negative LB3 mutants, LB3T and LB3T-nls were added at 10 μM final concentration, ΔNLB3 and wild-type LB3 were added at 2 μM final concentration to the egg extracts and incubated for 20 minutes before spindle assembly assays.

COC(=O)Nc1nc2ccc(C(=O)c3cccs3)cc2[nH]1 [nocodazole]
mitotic arrest [1]: 70-90% | sperm around which LB3-matrix was still assembled ([2]; MT assembly inhibited by nocodazole): more than half

triton X100
lamin B matrix integrity ([2]; 0.1% in XB containing nocodazole, 10 min at room temperature): completely disrupted

B1: wild-type LB3: lamin B3, the major form of lamin B in Xenopus eggs, 6His fusion protein (protein)
chain: MATSTPSRAREHASAAQSPGSPTRISRMQEKEDLRHLNDRLAAYIERVRSLEADKSLLKIQLEEREEVSSREVTNLRQLYETELADARKLLDQTANERARLQVELGKVREEYRQLQARNSKKENDLSLAQNQLRDLESKLNTKEAELATALSGKRGLEEQLQEQRAQIAGLESSLRDTTKQLHDEMLWRVDLENKMQTIREQLDFQKNIHTQEVKEIKKRHDTRIVEIDSGRRVEFESKLAEALQELRRDHEQQILEYKEHLEKNFSAKLENAQLAAAKNSDYASATREEIMATKLRVDTLSSQLNHYQKQNSALEAKVRDLQDMLDRAHDMHRRQMTEKDREVTEIRQTLQGQLEEYEQLLDVKLALDMEINAYRKMLEGEEQRLKLSPSPSQRSTVSRASTSQTSRLLRGKKRKLDETGRSVTKRSYKVVQQASSTGPVSVEDIDPEGNYVRLLNNTEEDFSLHGWVVKRMHMSLPEIAFKLPCRFILKSSQRVTIWAAGAGAVHSPPTDLVWKSQKTWGTGDNIKITLLDSTGEECAERTLYRVIGEEGETDEDFVEEEELERQFRSQSHQSVDPSC
spindle assembly [3]: neither buffer control nor wild-type LB3 affected

— patent US7510850B2, “Isolation of the mitotic spindle matrix and its methods of use” (Carnegie Institution of Washington, priority 2005, dated 2009)
